Entries after “also recorded” stand apart in the source; their conditions may differ. Non-standard residues stand in square brackets, D forms with d. Residues, ends and D or L forms follow the SMILES beside them. *: point of attachment. Myristoyl = CCCCCCCCCCCCCC(=O)*; NH(CH2)4NH2 = NCCCCN*
Key:
[1] = test system: human lung adenocarcinoma cell A549; experiment: MTT cytotoxicity assay, A549; format: cell-based; conditions: for IC50: 24 h; for cytotoxic / antitumor activity against A549 in words: MTT assay
Text: (§1) The two human acute lymphoblastic leukemia cells K562 and Kasumi, two human breast adenocarcinoma cells MCF7 and MDA-MB-231, human hepatoma cell HepG-2, human lung adenocarcinoma cell A549, human gastric cancer cell SGC-7901, human colon cancer cell HCT-116, human ovarian cancer cell line SKOV3, or human lung epithelial normal cell 2B were obtained from Beyotime Biotechnology and utilized to test the cytotoxicity of compounds by MTT assays as previous study. The anti-inflammatory effect of the compounds was detected by the influence on the increase in the level of nitric oxide caused by lipopolysaccharide (LPS) based on the classic Griess method. RAW 264.7 cells (Shanghai Institutes for Biological Science) were seeded in 96-well plates and incubated for 24 h. Then, cells were treated with compounds 29, 29a, 31, and 31a (0-80 μM) for 30 min, followed by co-treatment with LPS ([…]) for another 24 h. The Nitric Oxide assay kit with Griess reagents (Beyotime, Lot: S0021, Shanghai, China) was used to examine cellular supernatant nitrite accumulation, which represents cellular NO levels. The OD value of 540 nm absorbance was detected with a microplate reader. Their authentication in the laboratory was performed regularly based on morphology and gene/protein expression. The tested micro-organisms including Gram-negative bacteria E. coli ATCC 35218 and Pseudomonas aeruginosa ATCC 27853, and Gram-positive bacteria Staphylococcus aureus ATCC 29213 and B. subtilis ATCC 6633, and fungi Candida albicans, Rhizoctonia solani and Aspergillus fumigatus were treated with different concentrations of compounds (1 μM, 10 μM, 100 μM) using Bauer-Kirby disk diffusion method to evaluate the antimicrobial activities.

[2] = test system: HepG2 cells; experiment: Extracellular and intracellular compound in HepG2 cells (LC-MS); format: in vitro ADME, human; conditions: 3 h; for Intracellular compound, Average / Extracellular compound, Average: HepG2, six-well plates, 5 μg/mL (10,000 ng in total), mean of n = 3; for Intracellular compound, Average: cells extracted with MeOH; for Extracellular compound, Average: culture medium extracted with MeOH
Experimental: (§2) Comparing the concentration of compounds (7, 10, 10a) in extracellular and intracellular after the HepG2 cell line dealt with compounds. HepG2 cells were plated in six-well plates at a density of 1.5 × 10^5 cells/well and grew overnight. After cell treated with compounds (5 μg/mL) for 3 h, the compounds were extracted with MeOH for cells culture medium and cells separately as followed the reported method. The compounds were quantified by LC‒MS (5%‒95% ACN in 15 min). The cell numbers of HepG2 with the compounds treatments was determined. […]
(§3) To determine whether the difference in bioactivity of products (with or without Put moiety) is due to variations in cellular uptake, we treated hepatoma cell line HepG2 with compounds 7 (C12 acyl), 10 (C14 acyl), and 10a (C14 acyl and without Put) (Supplementary Fig. 33c). The cells were treated for 3 h, and then culture medium and cells were extracted separately. LC-MS was used to detect and quantify the compounds.
(§4) At lower concentrations (5000 ng/mL, and 10,000 ng in total for each group), and […]
(§5) may be contributing to the differences in antitumor activity (Supplementary Fig. 33b).
(§6) This could be due to differences in the speed of cellu lar uptake or differences in drug metabolism rate, requiring further experimental investigation.

[3] = test system: human hepatoma cell HepG-2; experiment: cells; format: cell-based; conditions: 24 h
Text: as §1

[4] = test system: human lung epithelial normal cell 2B; experiment: cells; format: cell-based; conditions: 24 h
Text: as §1

[5] = Solubility in solvents (observation); format: physicochemical; conditions: observation in water, methanol, acetonitrile, DMSO
Text: Putrescine is also a precursor of some specialized compounds, such as industrial polyamide nylon 4,6[33] and siderophore alcaligin[55]. To clarify the function of the Put moiety of glidonins, we synthesized lipopeptide 10a without the Put group.

[6] = test system: S. brevitalea DSM 7029 wild type; experiment: Growth curve of DSM 7029 wild type with compounds (Bioscreen C); format: cell-based, Schlegelella brevitalea DSM 7029; conditions: CYMG medium; for effect on growth of DSM 7029 wild type in words: compound 0.1 μg/μL, OD600 every hour for 42 h, Bioscreen C
Experimental: (§7) The growth curve was tested by Bioscreen C (Labsystems, Finland) as follow. Overnight culture was inoculated into 400 μL fresh CYMG medium in the ratio of 1:100 (the concentration of compounds was 0.1 μg/μL) and shook in normal speed. The OD600 value was gained in every hour for 42 h in total. Biofilm formation was measured at 18 h and 36 h respectively, as reported previously. In brief, the free-floating cells were removed, and the microtitre plate was washed with PBS (pH 7.4) after incubation for 18 h and 36 h. The biofilm was stained by adding 200 µL of crystal violet (0.1%) solution. Crystal violet solution was removed after 15 min and 200 µL of ethanol (95%) was added. The absorbance at OD600 was read using a microplate reader (Infinite M200, Tecan, Männedorf, Switzerland). Meanwhile, free-floating cells were used to test the secretion of pigment. The bacteria were removed and the supernatant was measured at OD600.

[7] = test system: methionyl-tRNA formyltransferase (Fmt); experiment: In vitro transformylation assay with Fmt; format: biochemical, Schlegelella brevitalea DSM 7029; conditions: 1 mM substrate, 25 μM Fmt, 1.5 mM N5,N10-methenylH4F, 50 mM HEPES pH 7.5, 30 °C, 4 h
Experimental: The in vitro assay of formyltransferase was tested. In brief, the formyl-donor co-substrate intermediate N^5, N^10-methenylH4F was first synthesized as follow: 14 mg of N^5-fH4F was dissolved in 3 mL of water and was converted to N^5, N^10-methenylH^4F through addition of 0.1 M HCl, until pH 1.9 was reached. The solution was then brought to a final volume of 4.4 mL with water and continually incubated at room temperature for 4 h. Then, the transformylation assay was setup in a 50 μL volume, in the presence of 50 mM HEPES buffer pH 7.5, 1 mM substrates (compounds 1, 1a, 13a), 1.5 mM N^5, N^10-methenylH4F, and 25 μM Fmt (35 kDa). Before the addition of the compounds and the enzyme, the intermediate N^5, N^10-methenylH4F was preincubated in the reaction buffer at 30 °C for 30 min, to permit the final pH-dependent conversion to N^10-fH4F. After the addition of the compounds and the enzyme, the reaction was allowed to proceed for 4 h at 30 °C, then ceased by the addition of 2 μL FA, and analyzed via HPLC‒MS. The condition for 1: 0–3 min, 20% ACN; 3–18 min, 20–60% ACN; 18.1 min, 95% ACN; 18.1–22 min, 95% ACN; 22.1 min, 20% ACN; 22.1–25 min, 20% ACN, ACN and H2O contained 0.1% FA; detection by UV spectroscopy at 200–400 nm. […]

[8] = test system: human breast adenocarcinoma cells MDA-MB-231; experiment: cells; format: cell-based; conditions: 24 h
Text: as §1

[9] = test system: human acute lymphoblastic leukemia cells K562; experiment: cells; format: cell-based; conditions: 24 h
Text: as §1

[10] = test system: human gastric cancer cell SGC-7901; experiment: cells; format: cell-based; conditions: 24 h
Text: as §1

[11] = test system: human breast adenocarcinoma cells MCF7; experiment: cells; format: cell-based; conditions: 24 h
Text: as §1

[12] = test system: human colon cancer cell HCT-116; experiment: cells; format: cell-based; conditions: 24 h
Text: as §1

[13] = test system: human cells Kasumi; experiment: MTT cytotoxicity assay, Kasumi; format: cell-based; conditions: for IC50: 24 h
Text: as §1

[14] = test system: S. brevitalea DSM 7029 wild type; experiment: Biofilm formation of DSM 7029 wild type with compounds (crystal violet); format: cell-based, Schlegelella brevitalea DSM 7029; conditions: for effect on biofilm formation of DSM 7029 wild type in words: crystal violet staining
Experimental: as §7

[15] = Chemical stability of 1 in MeOH (oxidation to 2); format: physicochemical; conditions: purified 1 dissolved in MeOH for 3 days
[16] = test system: native host DSM 7029; experiment: Inhibition zone test on the native host DSM 7029; format: cell-based, Schlegelella brevitalea DSM 7029; conditions: same method as for the seven tested strains
Text: as §1, with “The tested micro-organisms including Gram-negative bacteria E. coli ATCC 35218 and Pseudomonas aeruginosa ATCC 27853, and Gram-positive bacteria Staphylococcus aureus ATCC 29213 and B. subtilis ATCC 6633, and fungi Candida albicans, Rhizoctonia solani and Aspergillus fumigatus were treated with different concentrations of compounds (1 μM, 10 μM, 100 μM) using Bauer-Kirby disk diffusion method to evaluate the antimicrobial activities.” left out

[17] = test system: tumor lines; experiment: MTT cytotoxicity assay, statements on the whole panel; format: cell-based, human; conditions: MTT assay, panel of tumor cell lines
Text: as §1

[18] = test system: HepG2 cells; experiment: Cell numbers of HepG2 after compound treatment; format: cell-based, human; conditions: HepG2, 1.5 × 10^5 cells/well plated, compound 5 μg/mL, 3 h; mean of n = 3
Experimental: as §2, §3, §4, §5, §6

[19] = relative to wild type treated with H2O = 100%, crystal violet 0.1%, OD600, mean of n = 3

IC50 [3] [µM]	SMILES	IC50 [1] [µM]	cytotoxic / antitumor activity against A549 in words [1]	Intracellular compound, Average [2] [ng]	Extracellular compound, Average [2] [ng]	IC50 [4] [µM]	solubility in words [5]	effect on growth of DSM 7029 wild type in words [6]	IC50 [8] [µM]	IC50 [9] [µM]	IC50 [10] [µM]	IC50 [11] [µM]	IC50 [12] [µM]	IC50 [13] [µM]	effect on biofilm formation of DSM 7029 wild type in words [14]	other results
> 20	CCCCCCCCCCCCCC(=O)N[C@H](CCSC)C(=O)N[C@H](CC(N)=O)C(=O)N1CCC[C@H]1C(=O)N[C@H](C(=O)N[C@H](Cc1ccccc1)C(=O)N1CCC[C@H]1C(=O)N[C@@H](Cc1c[nH]c2ccccc12)C(=O)N[C@@H](C(=O)N[C@@H](C)C(=O)N[C@H](C)C(=O)N[C@@H](CO)C(=O)N[C@@H](C)C(=O)O)C(C)C)C(C)C [Compound 10a] (Myristoyl-[dM][dN]PV[dF]PW[dV]A[dA]SA-OH)	> 20	lower than those of 10	11.984	7245.41	> 20	soluble only in dimethyl sulfoxide (DMSO)	–	–	–	–	–	–	–	–	–
> 20	CSCC[C@@H](N)C(=O)N[C@H](CC(N)=O)C(=O)N1CCC[C@H]1C(=O)N[C@H](C(=O)N[C@H](Cc1ccccc1)C(=O)N1CCC[C@H]1C(=O)N[C@@H](Cc1c[nH]c2ccccc12)C(=O)N[C@@H](C(=O)N[C@@H](C)C(=O)N[C@H](C)C(=O)N[C@@H](CO)C(=O)N[C@@H](C)C(=O)NCCCCN)C(C)C)C(C)C [Compound 1, Glidonin A] (H-[dM][dN]PV[dF]PW[dV]A[dA]SA-{NH(CH2)4NH2})	7.2 ± 0.79	moderate activities	–	–	> 20	–	no effect	> 20	> 20	> 20	> 20	> 20	18.3 ± 1.22	less effect on biofilm formation	formylation by Fmt, formyl product by HPLC-MS [7]: higher than control; cytotoxic activity against Kasumi in words ([13]; MTT assay): moderate activities; biofilm formation 18 h, Average [14, 19]: 98.1978%; biofilm formation 36 h, Average [14, 19]: 87.2902%; chemical stability: change of 1 to the Met(O) product 2 [15]: without changing to 2

SMILES	IC50 [3] [µM]	IC50 [1] [µM]	cytotoxic / antitumor activity against A549 in words [1]	Intracellular compound, Average [2] [ng]	Extracellular compound, Average [2] [ng]	IC50 [4] [µM]	solubility in words [5]	effect on growth of DSM 7029 wild type in words [6]	IC50 [8] [µM]	IC50 [9] [µM]	IC50 [10] [µM]	IC50 [11] [µM]	IC50 [12] [µM]	IC50 [13] [µM]	effect on biofilm formation of DSM 7029 wild type in words [14]	other results
CCCCCCCCCCCCCC(=O)N[C@H](CCSC)C(=O)N[C@H](CC(N)=O)C(=O)N1CCC[C@H]1C(=O)N[C@H](C(=O)N[C@H](Cc1ccccc1)C(=O)N1CCC[C@H]1C(=O)N[C@@H](Cc1c[nH]c2ccccc12)C(=O)N[C@@H](C(=O)N[C@@H](C)C(=O)N[C@H](C)C(=O)N[C@@H](CO)C(=O)N[C@@H](C)C(=O)NCCCCN)C(C)C)C(C)C [Compound 10, Glidonin J] (Myristoyl-[dM][dN]PV[dF]PW[dV]A[dA]SA-{NH(CH2)4NH2})	6.68	7.15 ± 0.47	–	6.078	1078.84	11.8 ± 0.15	easily soluble in water, methanol and acetonitrile	weak inhibition of growth; also recorded: obviously inhibit the growth	7.2 ± 0.79	7.2 ± 0.79	> 20	> 20	> 20	1.39	increased biofilm formation	OD600 of wild type DSM 7029 with addition of compounds ([6]; control OD600 0.6): 0.4; inhibition of native host DSM 7029, inhibition zone method [16]: no inhibition; total quantities (intracellular plus extracellular) in words ([2]; HepG2, 5000 ng/mL, compared to 10a): lower total quantities; cytotoxic / antitumor activity in words [17]: broad-spectrum cytotoxicity; The cell numbers, Average [18]: 1303333
